Results published in patent publication US20250215030A1, “STAT MODULATORS AND USES THEREOF” (Recludix Pharma, Inc., priority 2022, published 2025).
pIC50: −log10 of the molar value. Like-named read-outs stand apart in the source and are kept apart here.

Experiments:
pSTAT3 (pY705-STAT3) = molecular target: T1, pSTAT3 (pY705-STAT3) (Homo sapiens, UniProt P40763); assay: MSD-pSTAT-PBMC Assay (pSTAT3, IL-6 stimulated); assay type: cell-based
T1 construct: host or cells: cryopreserved PBMC
Source text: Cryopreserved Peripheral Blood Mononuclear Cells (PBMC) are from AllCells. Recombinant Human IL-4 and IL-6 are from Peprotech. Mouse monoclonal anti-STAT3 antibody, rabbit monoclonal anti-pY705-STAT3 antibody, rabbit monoclonal Anti-pY641-STAT6 antibody, and lysis buffer are from Cell Signaling Technology (CST). Mouse monoclonal anti-STAT6 antibody is from BioLegend. Assay plates, blocker, and anti-rabbit secondary antibody are from Meso Scale Discovery (MSD).
Cryopreserved PBMCs were thawed out and allowed to recover overnight in IMDM+10% heat-inactivated FBS prior to plating 50,000 (STAT3) or 25,000 (STAT6) cells per well in 96-well U-bottom tissue culture plates. Cells were treated with compound for 3 hrs, then stimulated with 10 ng/mL IL-6 (STAT3) or 1 ng/mL IL-4 (STAT6) for 10 min. Cells were then spun down and washed with ice-cold PBS prior to lysing the cell pellet with 1× lysis buffer (CST) with 1× HALT protease and phosphatase inhibitor cocktail (Thermo). Lysates were transferred to and incubated overnight at 4° C. with shaking in QuickPlex 96-well high bind assay plates (MSD) pre-coated overnight with 30 μL per well of 0.6 μg/mL mouse monoclonal anti-STAT3 antibody (STAT3) or 2 μg/mL mouse monoclonal anti-STAT6 antibody (STAT6) in 1×PBS, and pre-blocked for 1 hour with 3% Blocker-A (MSD). Captured protein in the assay plates were then washed and probed with 25 μL per well of 0.25 μg/ml rabbit monoclonal anti-pY705-STAT3 antibody (STAT3) or 0.18 μg/ml rabbit monoclonal Anti-pY641-STAT6 antibody (STAT6) in 1% Blocker-A for 1 hour at room temperature with shaking, then washed and probed with 25 ul per well of 1 ug/mi Sulfo-TAG Labeled Goat Anti-Rabbit Antibody (MSD) in 1% Blocker-A for 1 hour at room temperature with shaking. Assay plates were then washed and 150 μL of 1× Read Buffer-T (MSD) was added to each well prior to reading on an SQ120 MSD Plate Reader. Assay signal from each sample was subtracted by the signal from unstimulated control wells and normalized to DMSO control wells. IC50 values were calculated using Graph Pad Prism Dose-Response Nonlinear Regression with variable slope. For both pSTAT3 and pSTAT6 A=≤100 nM; B=>100-1000 nM; C=>1000-3000 nM; and D=>3 μM.

[1] = molecular target: T2, Recombinant STAT3 protein (STAT3(G127-I722)) (Homo sapiens, UniProt P40763); assay: STAT3 Fluorescence Polarization (FP) Assay; assay type: binding; settings: STAT3(G127-I722) 25 nM, probe 5-FAM-GpYLPQTV-NH2 2 nM, 45-minute incubation
T2 construct: STAT3(G127-I722)
How it was run: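 Serially diluted compounds (1% DMSO) were mixed with 2 nM fluorescent phosphotyrosine peptide and 25 nM STAT3 construct G127-I722, pH 7.4, incubated 45 min at room temperature. IC50 values from fitted polarization curves are reported as categories A (≤100 nM), B, C, D (>10 μM).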

[2] = molecular target: T3, Recombinant STAT6 protein (STAT6(W123-T658)) (Homo sapiens, UniProt P42226); assay: STAT6 Fluorescence Polarization (FP) Assay; assay type: binding; settings: STAT6(W123-T658) 250 nM, probe 5-FAM-ApYKPFQDLI-NH2 2 nM, 45-minute incubation
T3 construct: STAT6(W123-T658)
T3 sequence (P42226 123-658): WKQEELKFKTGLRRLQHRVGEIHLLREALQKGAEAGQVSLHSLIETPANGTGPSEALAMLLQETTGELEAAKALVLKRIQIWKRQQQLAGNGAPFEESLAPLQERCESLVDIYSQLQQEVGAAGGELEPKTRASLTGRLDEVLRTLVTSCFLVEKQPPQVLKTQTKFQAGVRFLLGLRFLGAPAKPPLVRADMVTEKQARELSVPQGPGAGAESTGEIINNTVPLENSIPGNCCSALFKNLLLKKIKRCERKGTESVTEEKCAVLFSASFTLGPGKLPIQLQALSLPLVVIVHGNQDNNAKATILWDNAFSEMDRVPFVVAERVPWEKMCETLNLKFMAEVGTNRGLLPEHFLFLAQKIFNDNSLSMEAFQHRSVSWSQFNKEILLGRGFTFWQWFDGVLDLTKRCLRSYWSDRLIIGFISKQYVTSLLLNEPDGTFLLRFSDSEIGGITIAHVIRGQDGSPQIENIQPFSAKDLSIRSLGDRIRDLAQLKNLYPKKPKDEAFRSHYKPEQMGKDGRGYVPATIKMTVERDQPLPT
How it was run: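 Competitive displacement of a fluorescent phosphotyrosine peptide (2 nM) from recombinant STAT6 W123-T658 (250 nM), 45 min at room temperature in 10 mM HEPES pH 7.4, 50 mM NaCl, 2 mM DTT. mP fitted against log compound for IC50, grouped A (≤300 nM) to D (>30 μM).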

[3] = PBMC, compound 3 hrs, then 10 ng/mL IL-6 for 10 min, MSD pY705-STAT3, read-out: pSTAT3

T2 sequence (P40763 127-722, species assumed): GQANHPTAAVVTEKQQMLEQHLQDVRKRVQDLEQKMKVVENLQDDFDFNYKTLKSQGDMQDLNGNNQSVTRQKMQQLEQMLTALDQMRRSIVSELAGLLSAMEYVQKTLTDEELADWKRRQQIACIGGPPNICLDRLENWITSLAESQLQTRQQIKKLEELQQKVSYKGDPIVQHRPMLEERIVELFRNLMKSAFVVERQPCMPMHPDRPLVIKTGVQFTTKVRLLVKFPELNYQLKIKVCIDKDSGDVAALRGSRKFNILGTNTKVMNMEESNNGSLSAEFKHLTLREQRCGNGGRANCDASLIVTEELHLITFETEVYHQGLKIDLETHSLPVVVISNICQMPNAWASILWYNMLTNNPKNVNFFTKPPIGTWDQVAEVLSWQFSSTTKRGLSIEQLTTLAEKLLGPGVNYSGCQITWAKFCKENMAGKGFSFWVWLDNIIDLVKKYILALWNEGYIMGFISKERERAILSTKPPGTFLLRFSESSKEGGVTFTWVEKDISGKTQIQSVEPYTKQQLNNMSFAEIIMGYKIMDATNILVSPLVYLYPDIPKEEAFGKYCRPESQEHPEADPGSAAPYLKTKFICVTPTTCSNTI
T1 sequence (P40763 whole entry): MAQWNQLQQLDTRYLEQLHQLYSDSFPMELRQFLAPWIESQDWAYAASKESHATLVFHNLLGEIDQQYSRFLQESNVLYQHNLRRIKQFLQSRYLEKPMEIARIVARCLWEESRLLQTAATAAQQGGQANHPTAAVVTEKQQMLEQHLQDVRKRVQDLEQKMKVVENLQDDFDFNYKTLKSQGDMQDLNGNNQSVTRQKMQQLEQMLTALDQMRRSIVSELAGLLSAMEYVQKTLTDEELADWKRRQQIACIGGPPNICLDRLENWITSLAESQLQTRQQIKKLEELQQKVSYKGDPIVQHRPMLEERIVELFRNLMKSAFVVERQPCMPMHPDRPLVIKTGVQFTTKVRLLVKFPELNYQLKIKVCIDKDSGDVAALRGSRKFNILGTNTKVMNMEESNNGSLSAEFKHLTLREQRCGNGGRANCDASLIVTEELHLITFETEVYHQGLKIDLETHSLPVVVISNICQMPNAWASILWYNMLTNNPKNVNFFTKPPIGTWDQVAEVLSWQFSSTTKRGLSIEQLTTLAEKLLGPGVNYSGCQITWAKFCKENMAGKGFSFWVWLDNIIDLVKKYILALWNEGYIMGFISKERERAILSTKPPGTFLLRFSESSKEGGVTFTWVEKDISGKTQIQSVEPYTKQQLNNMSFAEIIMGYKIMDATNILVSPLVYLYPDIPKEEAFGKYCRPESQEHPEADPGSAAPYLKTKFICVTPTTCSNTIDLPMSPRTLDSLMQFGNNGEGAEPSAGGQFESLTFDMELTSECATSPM

Q: With `CCCOC(=O)[C@H](C)NP(=O)(Oc1ccccc1)C(F)c1ccc2sc(C(=O)N[C@H]3C[C@@H]4C[C@@H]4C[C@H]4CC[C@@H](C(=O)N5CC(c6cnccc6N6CCC6)C5)N4C3=O)cc2c1` (single isomer, unassigned) [Compound 426] as the compound, how does the pIC50 (pSTAT3 (pY705-STAT3)) read?
A: Its pIC50 is greater than 7.00.

Q: `CCCOC(=O)[C@H](C)N[P@](=O)(Oc1ccccc1)[C@@H](F)c1ccc2sc(C(=O)N[C@H]3C[C@@H]4C[C@@H]4C[C@H]4CC[C@@H](C(=O)N5C[C@H](c6cccnc6)[C@@H](C#N)C56CC6)N4C3=O)cc2c1` (single isomer, unassigned) [Compound 430] was tested. Which pIC50 (pSTAT3 (pY705-STAT3); [3]) did it give?
A: The pIC50 was less than 5.52.

Q: How did the pIC50 (pSTAT3 (pY705-STAT3)) turn out when `CCCOC(=O)[C@H](C)N[P@@](=O)(Oc1ccccc1)[C@@H](F)c1ccc2sc(C(=O)N[C@H]3C[C@@H]4C[C@@H]4C[C@H]4CC[C@@H](C(=O)N5C[C@H](c6cccnc6)[C@@H](C#N)C56CC6)N4C3=O)cc2c1` (single isomer, unassigned) [Compound 431] was run?
A: The pIC50 was less than 5.52.

Q: With `CCCOC(=O)[C@H](C)N[P@@](=O)(Oc1ccccc1)[C@@H](F)c1ccc2sc(C(=O)N[C@H]3C[C@@H]4C[C@@H]4C[C@H]4CC[C@@H](C(=O)N5C[C@@H](c6cnccc6N(C)C)CC56CC6)N4C3=O)cc2c1` (single isomer, unassigned) [Compound 432] as the compound, how does the pIC50 (pSTAT3 (pY705-STAT3); [3]) read?
A: The pIC50 was greater than 7.00.

Q: `CCCOC(=O)[C@H](C)N[P@@](=O)(Oc1ccccc1)[C@@H](F)c1ccc2sc(C(=O)N[C@H]3C[C@@H]4C[C@@H]4C[C@H]4CC[C@@H](C(=O)N5C[C@H](c6cnccc6N(C)C)CC56CC6)N4C3=O)cc2c1` (single isomer, unassigned) [Compound 434] was tested. Which pIC50 (pSTAT3 (pY705-STAT3)) did it give?
A: Its pIC50 is greater than 7.00.

Q: `CC(C)OC(=O)[C@H](C)N[P@@](=O)(Cc1ccc2sc(C(=O)N[C@H]3C[C@@H]4C[C@@H]4C[C@H]4CC[C@@H](C(=O)N5CC(C(=O)N6CCOCC6)C5)N4C3=O)cc2c1)Oc1ccccc1` (single isomer, unassigned) [Example 5] was tested. Which pIC50 (pSTAT3 (pY705-STAT3); [3]) did it give?
A: The pIC50 was 5.52 to 6.00.

Q: With `O=C(N[C@H]1C[C@@H]2C[C@@H]2C[C@H]2CC[C@@H](C(=O)N3CC(c4cnccc4N4CCC4)C3)N2C1=O)c1cc2cc([C@@H](F)P(=O)(O)O)ccc2s1` [Example 421, ((S)-(2-(((3S,6S,7aS,8aR,9aR)-3-(3-(4-(azetidin-1-yl)pyridin-3-yl)azetidine-1-carbonyl)-5-oxodecahydro-1H-cyclopropa[d]pyrrolo[1,2-a]azocin-6-yl)carbamoyl)benzo[b]thiophen-5-yl)fluoromethyl)phosphonic acid] as the compound, how does the pIC50 [1] read?
A: Its pIC50 is greater than 7.00.

Q: And the pIC50 [2]?
A: Its pIC50 is 4.52 to 5.52.

Q: Which results are given for `CO[C@@H]1CCN(c2ccncc2C2CN(C(=O)[C@@H]3CC[C@@H]4C[C@H]5C[C@H]5C[C@H](NC(=O)c5cc6cc([C@@H](F)P(=O)(O)O)ccc6s5)C(=O)N43)C2)C1` [Example 422, ((S)-fluoro(2-(((3S,6S,7aS,8aR,9aR)-3-(3-(4-((R)-3-methoxypyrrolidin-1-yl)pyridin-3-yl)azetidine-1-carbonyl)-5-oxodecahydro-1H-cyclopropa[d]pyrrolo[1,2-a]azocin-6-yl)carbamoyl)benzo[b]thiophen-5-yl)methyl)phosphonic acid]?
A: pIC50 [1]: > 7.00; pIC50 [2]: 4.52 to 5.52

Q: Which results are given for `COCC1(F)CN(c2ccncc2C2CN(C(=O)[C@@H]3CC[C@@H]4C[C@H]5C[C@H]5C[C@H](NC(=O)c5cc6cc([C@@H](F)P(=O)(O)O)ccc6s5)C(=O)N43)C2)C1` [Example 425, ((S)-fluoro(2-(((3S,6S,7aS,8aR,9aR)-3-(3-(4-(3-fluoro-3-(methoxymethyl)azetidin-1-yl)pyridin-3-yl)azetidine-1-carbonyl)-5-oxodecahydro-1H-cyclopropa[d]pyrrolo[1,2-a]azocin-6-yl)carbamoyl)benzo[b]thiophen-5-yl)methyl)phosphonic acid]?
A: pIC50 [1]: > 7.00; pIC50 [2]: < 4.52

Q: `Cn1ccc2cncc(C3CN(C(=O)[C@@H]4CC[C@@H]5C[C@H]6C[C@H]6C[C@H](NC(=O)c6cc7cc([C@@H](F)P(=O)(O)O)ccc7s6)C(=O)N54)C3)c21` [Example 427, ((S)-fluoro(2-(((3S,6S,7aS,8aR,9aR)-3-(3-(1-methyl-1H-pyrrolo[3,2-c]pyridin-7-yl)azetidine-1-carbonyl)-5-oxodecahydro-1H-cyclopropa[d]pyrrolo[1,2-a]azocin-6-yl)carbamoyl)benzo[b]thiophen-5-yl)methyl)phosphonic acid] was tested. Which pIC50 [1] did it give?
A: Its pIC50 is 6.00 to 7.00.

Q: What about the pIC50 [2] of the same compound?
A: Its pIC50 is 5.52 to 6.52.

Q: How did the pIC50 [1] turn out when `N#CC1CN(c2ccncc2C2CN(C(=O)[C@@H]3CC[C@@H]4C[C@H]5C[C@H]5C[C@H](NC(=O)c5cc6cc([C@@H](F)P(=O)(O)O)ccc6s5)C(=O)N43)C2)C1` [Example 428, ((S)-(2-(((3S,6S,7aS,8aR,9aR)-3-(3-(4-(3-cyanoazetidin-1-yl)pyridin-3-yl)azetidine-1-carbonyl)-5-oxodecahydro-1H-cyclopropa[d]pyrrolo[1,2-a]azocin-6-yl)carbamoyl)benzo[b]thiophen-5-yl)fluoromethyl)phosphonic acid] was run?
A: The pIC50 was greater than 7.00.

Q: And the pIC50 [2]?
A: Its pIC50 is 4.52 to 5.52.

Q: How did the pIC50 [1] turn out when “((R)-fluoro(2-(((3S,6S,7aS,8aR,9aR)-3-(3-(morpholine-4-carbonyl)azetidine-1-carbonyl)-5-oxodecahydro-1H-cyclopropa[d]pyrrolo[1,2-a]azocin-6-yl)carbamoyl)benzo[b]thiophen-5-yl)methyl)phosphonic acid or ((S)-fluoro(2-(((3S,6S,7aS,8aR,9aR)-3-(3-(morpholine-4-carbonyl)azetidine-1-carbonyl)-5-oxodecahydro-1H-cyclopropa[d]pyrrolo[1,2-a]azocin-6-yl)carbamoyl)benzo[b]thiophen-5-yl)methyl)phosphonic acid [Compound 33]” was run?
A: The pIC50 was greater than 7.00.

Q: What about the pIC50 [2] of the same compound?
A: Its pIC50 is 4.52 to 5.52.

Q: With “((S)-fluoro(2-(((3S,6S,7aS,8aR,9aR)-3-(3-(morpholine-4-carbonyl)azetidine-1-carbonyl)-5-oxodecahydro-1H-cyclopropa[d]pyrrolo[1,2-a]azocin-6-yl)carbamoyl)benzo[b]thiophen-5-yl)methyl)phosphonic acid Or ((R)-fluoro(2-(((3S,6S,7aS,8aR,9aR)-3-(3-(morpholine-4-carbonyl)azetidine-1-carbonyl)-5-oxodecahydro-1H-cyclopropa[d]pyrrolo[1,2-a]azocin-6-yl)carbamoyl)benzo[b]thiophen-5-yl)methyl)phosphonic acid [Compound 34]” as the compound, how does the pIC50 [1] read?
A: The pIC50 was 6.00 to 7.00.

Q: And the pIC50 [2]?
A: Its pIC50 is less than 4.52.

Q: “(difluoro(2-(((3S,6S,7aR,8aS,9aR)-5-ox0-3-(3-(pyridin-2-yl)azetidine-1-carbonyl)decahydro-1H-cyclopropa[d]pyrrolo[1,2-a]azocin-6-yl)carbamoyl)benzo[b]thiophen-5-yl)methyl)phosphonic acid [Compound 106]” was tested. Which pIC50 [1] did it give?
A: The pIC50 was greater than 7.00.

Q: What about the pIC50 [2] of the same compound?
A: Its pIC50 is 5.52 to 6.52.

Q: How did the pIC50 [1] turn out when “(difluoro(2-(((3S,6S,8aR,9aS,9bR)-3-(3-methoxy-3-(1-methyl-1H-imidazol-2-yl)azetidine-1-carbonyl)-8a-methyl-5-oxodecahydro-1H-cyclopropa[c]pyrrolo[1,2-a]azocin-6-yl)carbamoyl)benzo[b]thiophen-5-yl)methyl)phosphonic acid [Example 241]” was run?
A: The pIC50 was 6.00 to 7.00.

Q: What about the pIC50 [2] of the same compound?
A: Its pIC50 is 4.52 to 5.52.
